Source: patent US11332503B2, “Peptides for treatment and prevention of hyperglycaemia” (UNIVERSITE DE STRASBOURG, priority 2017, dated 2022)
Positions of bridges follow the written chain, without caps; N, C: chain ends. Non-standard residues stand in square brackets, D forms with d. R8 = C=CCCCCCC[C@@](C)(N)C(=O)O; S5 = C=CCCC[C@](C)(N)C(=O)O

System: human primary adipocytes
Assay: In vitro 2-deoxy-D-glucose-6-phosphate (DG6P) uptake in human primary adipocytes
Format: cell-based
Procedure: Human white visceral preadipocytes (Catalog #: C-12732; PromoCell) were purchased. The preadipocytes were seeded according to manufacturer's protocol and cultured in the Preadipocyte growth medium (Catalog #: C-27410; PromoCell) to confluence. Once confluence was reached, adipogenic differentiation was triggered through medium change to get mature human adipocytes. For the culture without insulin, Adipocyte Basal Medium (Catalog #: C-2431; PromoCell) without insulin was complemented with 5 g/L of […], 8 μg/mL d-Biotin, 400 ng/mL Dexamethasone (following manufacturer's procedure). Native peptides and their stapled counterparts as well as the scrambled peptides (corresponding to the same set of amino acids but rearranged randomly) were purchased from Eurogentec. Each peptide was diluted in saline and used at a dose of 2.5 ng per 10 cm square of cell culture surface area for in vitro studies or 2.5 ng of each peptide (A and B) was injected per mouse.
Mature adipocytes were cultured in 96 well plate. The adipocytes received the different peptides at the indicated concentration above. 24 hours later, the glucose absorption capacity if the treated cells were assessed using the Glucose Uptake Colorimetric Assay kit from Bio Vision (Catalog #: K676-100).
In vivo assessment of the effect of stapled peptides A and B injection in the adipose tissue of diet-induced diabetic WT mice. Mice were fed with a defined high fat/high glucose diet until they became intolerant to glucose (FIG. 5A, Prior Injection). Once the mice were glucose intolerant, these mice received an injection with a combination of the stapled peptides A and B directly in the subcutaneous fat and GTT was again performed a week later as depicted in FIG. 5B. […] FIG. 5C depicts pictures of the adipose tissue which received a combination of the stapled peptides A and B labelled with FAM (green dots indicated with the white arrows). […] A variety of modified stapled peptides were designed to test the effect of modifying the peptide sequence on insulin-independent glucose uptake into adipocytes. Peptides were obtained from CPC Scientific. Additional in vitro 2-deoxy-D-glucose-6-phosphate (DG6P) uptake results in human primary adipocytes for individual peptides of the present technology are provided in Tables 1-3.

[1] = Table 2 dose response, 0.001 μM

H-LPHET-R8-RLSQKV-S5-TKLDCLMFVEPA-OH [AT005] (H-LPHET[R8]RLSQKV[S5]TKLDCLMFVEPA-OH; staple 6-13; SMILES CSCC[C@H](NC(=O)[C@H](CC(C)C)NC(=O)[C@H](CS)NC(=O)[C@H](CC(=O)O)NC(=O)[C@H](CC(C)C)NC(=O)[C@H](CCCCN)NC(=O)[C@@H](NC(=O)[C@]1(C)CCCC=CCCCCCC[C@@](C)(NC(=O)[C@@H](NC(=O)[C@H](CCC(=O)O)NC(=O)[C@H](Cc2c[nH]cn2)NC(=O)[C@@H]2CCCN2C(=O)[C@@H](N)CC(C)C)[C@@H](C)O)C(=O)N[C@@H](CCCNC(=N)N)C(=O)N[C@@H](CC(C)C)C(=O)N[C@@H](CO)C(=O)N[C@@H](CCC(N)=O)C(=O)N[C@@H](CCCCN)C(=O)N[C@@H](C(C)C)C(=O)N1)[C@@H](C)O)C(=O)N[C@@H](Cc1ccccc1)C(=O)N[C@H](C(=O)N[C@@H](CCC(=O)O)C(=O)N1CCC[C@H]1C(=O)N[C@@H](C)C(=O)O)C(C)C) [reference compound]
2-DG6P (Table 1, peptides at 50 μM): 27.7 pmol | 2-DG6P compared to -Insulin (%) (Table 1, peptides at 50 μM): 92.0%

H-VECT(AAH)-R8-EKRVLA-S5-LDKPPFLTQLHS-OH [AT018]
2-DG6P (Table 1, peptides at 50 μM): 28.2 pmol | 2-DG6P compared to -Insulin (%) (Table 1, peptides at 50 μM): 93.5%

H-VECTM-R8-EKRVLA-S5-LD-OH (H-VECTM[R8]EKRVLA[S5]LD-OH; staple 6-13; SMILES CSCC[C@H](NC(=O)[C@@H](NC(=O)[C@H](CS)NC(=O)[C@H](CCC(=O)O)NC(=O)[C@@H](N)C(C)C)[C@@H](C)O)C(=O)N[C@]1(C)CCCCCCC=CCCC[C@@](C)(C(=O)N[C@@H](CC(C)C)C(=O)N[C@@H](CC(=O)O)C(=O)O)NC(=O)[C@H](C)NC(=O)[C@H](CC(C)C)NC(=O)[C@H](C(C)C)NC(=O)[C@H](CCCNC(=N)N)NC(=O)[C@H](CCCCN)NC(=O)[C@H](CCC(=O)O)NC1=O) [AT016]
2-DG6P (Table 1, peptides at 50 μM): 51.5 pmol | 2-DG6P compared to -Insulin (%) (Table 1, peptides at 50 μM): 170.9% | 2-DG6P (Table 3 dose response, 1 μM): 23.7 pmol | 2-DG6P compared to -Insulin (%) (Table 3 dose response, 1 μM): 172.4% | 2-DG6P (Table 3 dose response, 10 μM): 38.6 pmol | 2-DG6P compared to -Insulin (%) (Table 3 dose response, 10 μM): 280.6% | 2-DG6P (Table 3 dose response, 100 μM): 51.4 pmol | 2-DG6P compared to -Insulin (%) (Table 3 dose response, 100 μM): 373.7%

H-VE(AAB)TM-R8-EKRVLA-S5-LDKPPFLTQLHS-OH [AT017]
2-DG6P (Table 1, peptides at 50 μM): 55.4 pmol | 2-DG6P compared to -Insulin (%) (Table 1, peptides at 50 μM): 184.0%

H-VECTM-S5-EKR-S5-LALLDKPPFLTQLHS-OH [AT008]
2-DG6P (Table 1, peptides at 50 μM): 53.3 pmol | 2-DG6P compared to -Insulin (%) (Table 1, peptides at 50 μM): 177.0%

H-VECTM-R8-EKRVLA-S5-LDKP-OH (H-VECTM[R8]EKRVLA[S5]LDKP-OH; staple 6-13; SMILES CSCC[C@H](NC(=O)[C@@H](NC(=O)[C@H](CS)NC(=O)[C@H](CCC(=O)O)NC(=O)[C@@H](N)C(C)C)[C@@H](C)O)C(=O)N[C@]1(C)CCCCCCC=CCCC[C@@](C)(C(=O)N[C@@H](CC(C)C)C(=O)N[C@@H](CC(=O)O)C(=O)N[C@@H](CCCCN)C(=O)N2CCC[C@H]2C(=O)O)NC(=O)[C@H](C)NC(=O)[C@H](CC(C)C)NC(=O)[C@H](C(C)C)NC(=O)[C@H](CCCNC(=N)N)NC(=O)[C@H](CCCCN)NC(=O)[C@H](CCC(=O)O)NC1=O) [AT015]
2-DG6P (Table 1, peptides at 50 μM): 35.7 pmol | 2-DG6P compared to -Insulin (%) (Table 1, peptides at 50 μM): 118.6% | 2-DG6P (Table 3 dose response, 1 μM): 16.6 pmol | 2-DG6P compared to -Insulin (%) (Table 3 dose response, 1 μM): 121.0% | 2-DG6P (Table 3 dose response, 10 μM): 28.9 pmol | 2-DG6P compared to -Insulin (%) (Table 3 dose response, 10 μM): 210.6% | 2-DG6P (Table 3 dose response, 100 μM): 39.2 pmol | 2-DG6P compared to -Insulin (%) (Table 3 dose response, 100 μM): 284.9%

H-VECTM-R8-EKRVLA-S5-LDKPPFLTQLHS-OH [AT007]
2-DG6P (Table 1, peptides at 50 μM): 57.7 pmol | 2-DG6P compared to -Insulin (%) (Table 1, peptides at 50 μM): 191.5% | 2-DG6P (Table 2 dose response, 0.1 μM): 23.2 pmol | 2-DG6P compared to -Insulin (%) (Table 2 dose response, 0.1 μM): 106.5% | 2-DG6P (Table 2 dose response, 1 μM): 24.0 pmol | 2-DG6P compared to -Insulin (%) (Table 2 dose response, 1 μM): 110.1% | 2-DG6P (Table 2 dose response, 10 μM): 36.0 pmol | 2-DG6P compared to -Insulin (%) (Table 2 dose response, 10 μM): 165.0% | 2-DG6P (Table 2 dose response, 100 μM): 55.5 pmol | 2-DG6P compared to -Insulin (%) (Table 2 dose response, 100 μM): 254.3%

H-LPHET-R8-RLSQKV-S5-TKLDCLMFVEPA-OH [AT006] (H-LPHET[R8]RLSQKV[S5]TKLDCLMFVEPA-OH; staple 6-13; SMILES CSCC[C@H](NC(=O)[C@H](CC(C)C)NC(=O)[C@H](CS)NC(=O)[C@H](CC(=O)O)NC(=O)[C@H](CC(C)C)NC(=O)[C@H](CCCCN)NC(=O)[C@@H](NC(=O)[C@]1(C)CCCC=CCCCCCC[C@@](C)(NC(=O)[C@@H](NC(=O)[C@H](CCC(=O)O)NC(=O)[C@H](Cc2c[nH]cn2)NC(=O)[C@@H]2CCCN2C(=O)[C@@H](N)CC(C)C)[C@@H](C)O)C(=O)N[C@@H](CCCNC(=N)N)C(=O)N[C@@H](CC(C)C)C(=O)N[C@@H](CO)C(=O)N[C@@H](CCC(N)=O)C(=O)N[C@@H](CCCCN)C(=O)N[C@@H](C(C)C)C(=O)N1)[C@@H](C)O)C(=O)N[C@@H](Cc1ccccc1)C(=O)N[C@H](C(=O)N[C@@H](CCC(=O)O)C(=O)N1CCC[C@H]1C(=O)N[C@@H](C)C(=O)O)C(C)C) [reference compound]
2-DG6P (Table 1, peptides at 50 μM): 30.7 pmol | 2-DG6P compared to -Insulin (%) (Table 1, peptides at 50 μM): 102.0%

H-LPHET-R8-RLSQKV-S5-TKLDCLMFVEPA-OH [AT004] (H-LPHET[R8]RLSQKV[S5]TKLDCLMFVEPA-OH; staple 6-13; SMILES CSCC[C@H](NC(=O)[C@H](CC(C)C)NC(=O)[C@H](CS)NC(=O)[C@H](CC(=O)O)NC(=O)[C@H](CC(C)C)NC(=O)[C@H](CCCCN)NC(=O)[C@@H](NC(=O)[C@]1(C)CCCC=CCCCCCC[C@@](C)(NC(=O)[C@@H](NC(=O)[C@H](CCC(=O)O)NC(=O)[C@H](Cc2c[nH]cn2)NC(=O)[C@@H]2CCCN2C(=O)[C@@H](N)CC(C)C)[C@@H](C)O)C(=O)N[C@@H](CCCNC(=N)N)C(=O)N[C@@H](CC(C)C)C(=O)N[C@@H](CO)C(=O)N[C@@H](CCC(N)=O)C(=O)N[C@@H](CCCCN)C(=O)N[C@@H](C(C)C)C(=O)N1)[C@@H](C)O)C(=O)N[C@@H](Cc1ccccc1)C(=O)N[C@H](C(=O)N[C@@H](CCC(=O)O)C(=O)N1CCC[C@H]1C(=O)N[C@@H](C)C(=O)O)C(C)C) [reference compound]
2-DG6P (Table 1, peptides at 50 μM): 29.5 pmol | 2-DG6P compared to -Insulin (%) (Table 1, peptides at 50 μM): 98.0%

+Insulin: insulin-treated adipocytes, positive control of the DG6P uptake assay [reference compound]
2-DG6P (Table 1, +Insulin control): 94.2 pmol | 2-DG6P compared to -Insulin (%) (Table 1, +Insulin control): 312.6% | 2-DG6P (Table 2, +Ins control): 79.3 pmol | 2-DG6P compared to -Insulin (%) (Table 2, +Ins control): 363.3% | 2-DG6P (Table 3, +Insulin control): 87.9 pmol | 2-DG6P compared to -Insulin (%) (Table 3, +Insulin control): 639.6%

H-VECTM-R8-EKRVLA-S5-LDKPPFLTQLHS-OH [AT021]
2-DG6P (Table 1, peptides at 50 μM): 37.5 pmol | 2-DG6P compared to -Insulin (%) (Table 1, peptides at 50 μM): 124.6%

H-VECTM-R8-EKRVLA-S5-LDKPPFLTQLHS-OH [AT001]
2-DG6P (Table 1, peptides at 50 μM): 44.2 pmol | 2-DG6P compared to -Insulin (%) (Table 1, peptides at 50 μM): 146.8% | 2-DG6P [1]: 19.9 pmol | 2-DG6P compared to -Insulin (%) [1]: 91.2% | 2-DG6P (Table 2 dose response, 0.01 μM): 21.3 pmol | 2-DG6P compared to -Insulin (%) (Table 2 dose response, 0.01 μM): 97.5% | 2-DG6P (Table 2 dose response, 0.1 μM): 22.3 pmol | 2-DG6P compared to -Insulin (%) (Table 2 dose response, 0.1 μM): 102.0% | 2-DG6P (Table 2 dose response, 1 μM): 23.9 pmol | 2-DG6P compared to -Insulin (%) (Table 2 dose response, 1 μM): 109.6% | 2-DG6P (Table 2 dose response, 10 μM): 31.7 pmol | 2-DG6P compared to -Insulin (%) (Table 2 dose response, 10 μM): 145.2% | 2-DG6P (Table 2 dose response, 100 μM): 47.2 pmol | 2-DG6P compared to -Insulin (%) (Table 2 dose response, 100 μM): 216.1%

H-VECTM-R8-EKRVLA-S5-LDKPPF-OH (H-VECTM[R8]EKRVLA[S5]LDKPPF-OH; staple 6-13; SMILES CSCC[C@H](NC(=O)[C@@H](NC(=O)[C@H](CS)NC(=O)[C@H](CCC(=O)O)NC(=O)[C@@H](N)C(C)C)[C@@H](C)O)C(=O)N[C@]1(C)CCCCCCC=CCCC[C@@](C)(C(=O)N[C@@H](CC(C)C)C(=O)N[C@@H](CC(=O)O)C(=O)N[C@@H](CCCCN)C(=O)N2CCC[C@H]2C(=O)N2CCC[C@H]2C(=O)N[C@@H](Cc2ccccc2)C(=O)O)NC(=O)[C@H](C)NC(=O)[C@H](CC(C)C)NC(=O)[C@H](C(C)C)NC(=O)[C@H](CCCNC(=N)N)NC(=O)[C@H](CCCCN)NC(=O)[C@H](CCC(=O)O)NC1=O) [AT014]
2-DG6P (Table 1, peptides at 50 μM): 58.8 pmol | 2-DG6P compared to -Insulin (%) (Table 1, peptides at 50 μM): 195.1%

H-VECTM-R8-EKRVLA-S5-LDKPPFLTQLHS-NH2 [AT003]
2-DG6P (Table 1, peptides at 50 μM): 46.2 pmol | 2-DG6P compared to -Insulin (%) (Table 1, peptides at 50 μM): 153.3%
